Assay results: ChEMBL document CHEMBL1148075, “Hamacanthins A and B, new antifungal bis indole alkaloids from the deep-water marine sponge, Hamacantha sp” (1994)
Values after ≈ are worked out from the molar mass of the structure shown.

Tests used:
Format in all cases: functional
[1] = system: Cryptococcus neoformans; assay: Antifungal activity against Cryptococcus neoformans ATCC 32045 after 48 hrs by broth microdilution method; conditions: ATCC 32045, 48 h
[2] = system: Bacillus subtilis; assay: Antimicrobial activity against Bacillus subtilis ATCC 6633 after 24 hrs by broth microdilution method; conditions: ATCC 6633, 24 h
[3] = system: Candida albicans; assay: Antifungal activity against Candida albicans ATCC 44506 after 24 hrs by broth microdilution method; conditions: ATCC 44506, 24 h

`O=C1N[C@@H](c2c[nH]c3cc(Br)ccc23)CN=C1c1c[nH]c2cc(Br)ccc12` [HAMACANTHIN A] gave an MIC [1] of 3.1 mg/L (≈ 6.38 µM), an MIC [2] of 3.1 mg/L (≈ 6.38 µM) and an MIC [3] of 1.6 mg/L (≈ 3.29 µM).

In the case of `O=C1NC[C@H](c2c[nH]c3cc(Br)ccc23)N=C1c1c[nH]c2cc(Br)ccc12` [HAMACANTHIN B], the MIC [1] is reported as 6.2 mg/L (≈ 12.8 µM), the MIC [2] is reported as 1.6 mg/L (≈ 3.29 µM) and the MIC [3] is reported as 6.2 mg/L (≈ 12.8 µM).
